Here are results for one substance from US20060040870A1, “Enhancement of apoptosis by caspase-9 inhibitors” (priority 2004, published 2006).

The star is where a group is joined. Cbz = O=C(OCc1ccccc1)*; CH2F = FC*

The subject of assay [1] is leukemia/lymphoma cells. The experiment in a line: Pro-apoptotic activity of caspase inhibitor sequences (Table 2). The format is cell-based. On the set-up: key: “−” is no activity; ++++ is maximum activity. An excerpt: Caspases are constitutively express in cells, and are usually in their pro-form. In response to an incident, such as irradiation or chemotherapy, the pro-form of the caspase is converted into the activated state. Certain compounds are known that can inhibit caspases. For example, the pan-caspase (PCi) VAD can block all caspases. […] For example, C2i inhibits caspase-2. This particular inhibitor is very dose dependent.

The subject of assay [2] is BLIN-4L cells. Description: Apoptosis by Annexin V staining and flow cytometry, BLIN-4L. Format: cell-based, human. The settings on record: 50 μM. As to the method: (§1) Flow cytometry. Quantitation of apoptotic events was conducted using a FACS Calibur (BD Immunocytometry Systems). All analyses were conducted on cells with lymphoid light scatter characteristics (i.e., low to medium forward scatter and low 90° side scatter).
(§2) iii. Annexin V. FITC-labeled Annexin V (BD Pharmingen, San Diego, Calif.) was used to detect external phosphatidylserine residues appearing on the external surface of early apoptotic cells (Koopman Blood. 1994;84:1415-1420). Cells were stained according to the manufacturers recommendations.
(§3) General experimental strategy. BLIN cell lines were removed from fibroblast monolayers, washed once and resuspended to 7.5×10^5/ml in X-VIVO 10. Two hundred μL of resuspended cells were added to 96-well flat-bottom microtiter plates (ISC Bioexpress, Kaysville, Vt.), followed by 0.5-1.0 μL of caspase inhibitors in DMSO. An identical volume of DMSO alone was added to separate wells as a vehicle control. This final DMSO concentration of 0.25-0.5% vol/vol had no adverse affect on any of the BLIN cell lines. At the indicated times the entire content of individual wells was harvested and stained in the fluorescent protocols described above.
The inventors carried out experiments to test the influence of specific amino acid substitutions on the proapoptotic activity Z-LEHD-fmk. […]
For orientation: In flow cytometry, cells or beads pass a laser one at a time.

Assay [3] has as its system RAJI Burkitt lymphoma cell line. The experiment in a line: Apoptosis by Annexin V staining and flow cytometry, RAJI. Format: cell-based. The settings on record: 50 μM, 18 hours. As to the method: (§4) FIG. 4 is a pair of graphs showing the effect of […] on various cell lines, as determined by Annexin V staining and flow cytometry. The cells included the B-cell precursor ALL cell lines […], and NALM-6, the RAMOS, RAJI, and DAUDI Burkitt lymphoma cell lines, the CCRF-CEM, JURKAT, and H9 T lymphoma cell lines, the K-562 erythroleukemia cell line, and resting or activated (i.e., CD3/CD28 cross-linked) normal human T cells. […] Flow cytometry. Quantitation of apoptotic events was conducted using a FACS Calibur (BD Immunocytometry Systems). All analyses were conducted on cells with lymphoid light scatter characteristics (i.e., low to medium forward scatter and low 90° side scatter). iii. Annexin V. […] Cells were stained according to the manufacturers recommendations.

Assay [4] relates to DAUDI Burkitt lymphoma cell line. Description: Apoptosis by Annexin V staining and flow cytometry, DAUDI. Format: cell-based. As to conditions: 50 μM, 18 hours. As to the method:
as §4

The test system of assay [5] is K-562 erythroleukemia cell line. The experiment in a line: Apoptosis by Annexin V staining and flow cytometry, K-562. Format: cell-based. The settings on record: K-562, 50 μM, 18 hours. The method, then: as §4
In assay [6] the test system is caspase-9-deficient cells (BLIN-4L, RAMOS). The experiment in a line: Annexin V apoptosis in caspase-9 siRNA-treated BLIN-4L and RAMOS cells. The settings on record: BLIN-4L and RAMOS electroporated with caspase-9 siRNA, 50 μM, 8 hours. Format: cell-based, human. The method, then: This technology employs a double algorithm. […] In preliminary studies using FITC-conjugated control siRNA (Dharmacon), we determined that the BLIN cell lines could be transfected to >80% efficiency by electroporation. […] BLIN-4L were then diluted into 4.8 ml of X-VIVO 10 supplemented with 10% FBS and 5 ng/ml of IL-7.
The inventors performed further studies to determine whether caspase-9 can be completely knocked out by means of RNA interference (RNAi). […] The inventors discovered that C9i induces apoptosis in caspase-9-deficient cells. BLIN-4L (FIG. 7A) and RAMOS (FIG. 7B) cells were electroporated with 8 μM SMARTpool (Dharmacon Inc.) caspase-9 siRNA or control siRNA and allowed to recover for 3 days in X-VIVO/10% FCS supplemented with 5 ng/ml IL-7 (BLIN-4L), or RPMI/10% FCS (RAMOS). After 3 days, the electroporated populations were assayed for Annexin V binding (to determine background levels of apoptosis), and then cultured in DMSO or 50 μM C9i for 8 hours. The cells were then harvested, stained with Annexin V, and analyzed by flow cytometry. […] Thus, no caspase-9 was present at all in the cells. […] Thus, C9i clearly is acting on another molecule in the cell besides just caspase-9. Also, one can conclude that caspase-9 is not necessary for C9i-induced apoptosis to occur.

Assay [7] concerns BLIN cell lines. Description: Enhancement of apoptosis in BLIN cell lines (flow cytometry). The format is cell-based, human. As to the method: as §1
i. Mitochondrial transmembrane potential (Δψm). The cationic lipophilic fluorescent dye tetramethylrhodamine, ethyl ester, perchlorate (TMRE) was purchased from Molecular Probes, Inc. (Eugene, Oreg.). TMRE has a high degree of membrane permeability and accumulates into mitochondria in accord with the Nernstian equation (Farkas Biophys J. 1989;56:1053-1069). Cells were washed once and re-suspended to 0.5-1.0×10^6/ml in X-VIVO 10. TMRE was added to a final concentration of 50 nM and the cells were incubated in the dark at 37° C. for 15 minutes. Cells were then washed 2× in PBS, resuspended in PBS containing 2 μg/ml of propidium iodide (PI), and immediately analyzed. The protonophore […] (50 μM, CCCP, Sigma) was used as a positive control to effect loss of Δψm in 100% of cells.
ii. YO-PRO-1. The green fluorescent DNA intercalant dye YO-PRO-1 (Idziorek J Immunol Methods. 1995;185:249-258) was purchased from Molecular Probes as the Vybrant Apoptosis Assay Kit #4. Dual staining with YO-PRO and PI allows for the detection of early apoptotic cells (YO-PRO+/PI−) that have undergone initial changes in permeability to small molecules. Cells were stained according to the manufacturers recommendations.
as §2, §3

Regarding “Z-LEHD-fmk (Cbz-LEHD-CH2F; SMILES CC(C)C[C@H](NC(=O)OCc1ccccc1)C(=O)N[C@@H](CCC(=O)O)C(=O)N[C@@H](Cc1c[nH]cn1)C(=O)N[C@@H](CC(=O)O)C(=O)CF) [C9i]”, in assay [1], the “Pro-apoptotic Activity (after 24 hours)” value was “++++”. In addition, the “apoptosis (Annexin V and TMRE staining) versus DMSO vehicle” value in assay [2] (BLIN-4L removed from adherent fibroblasts, 2-hour time points up to 8 hours) was “promoted apoptosis in BLIN-4L, albeit not as pronounced as in BLIN-3”. The “sensitivity (fold-increase in Annexin V+ cells vs DMSO)” value in assay [2] (BLIN-4L, 18 hours) was “sensitive”; in assay [3] it was “insensitive”; in assay [4], “insensitive”; in assay [5], “insensitive”. The “induction of apoptosis in caspase-9-deficient cells (Annexin V)” value in assay [6] was “still induced apoptosis”. For the same substance, the “lowest concentration at which enhancement of apoptosis occurred” value in assay [7] is 6.25 µM. The “promotion of apoptosis in healthy cells” value in assay [7] (BLIN-3 and BLIN-4L maintained on adherent fibroblasts and/or IL-7, 8 hours) was “did not promote apoptosis”; in assay [7] (BLIN-3 and BLIN-4L maintained on adherent fibroblasts and/or IL-7, 18 hours), “promoted apoptosis”.
